Results reported in patent publication US8314082B2, “Stilbene derivatives for ADP-ribosyl cyclase inhibitors” (Industrial Cooperation Foundation Chonbuk National …, priority 2006, dated 2012).
Read-outs that look alike come from different tables or passages of the source.

What was measured:
Format in all cases: cell-based
[1] = test system: Ang II induced [Ca^2+]i increase in murine mesangial cells (MMCs); assay: Ang II-mediated [Ca2+]i increase in MMCs; settings: Mus musculus, Mesangial cell
Protocol: Changes in [Ca^2+]i in MMCs were determined as described previously [Kim et al., Exp. Mol. Med. (2006)38:535-45]. Briefly, MMCs cultured on confocal dishes for 48 h at a concentration of 10^4 cells/dish were washed with Hank's balanced salt solution (HBSS) (2 mM CaCl2, 145 mM NaCl, 5 mM KCl, 1 mM MgCl2, 5 mM D-glucose, and 20 mM HEPES, pH 7.3) and then loaded with […] Fluo 3-AM (Molecular Probe, Eugene, Oreg.). Changes in Ca^2+ fluorescence were determined at 488 nm/530 nm (excitation/emission) by air-cooled argon laser system. [Ca^2+]i was calculated using a Kd of 325 nM for Fluo 3-AM by the method of Tsien et al. (1982).

[2] = test system: Ang II induced cADPR production in murine mesangial cells (MMCs); assay: Ang II-induced intracellular cADPR concentration in MMCs; settings: for IC50: Mus musculus, Mesangial cell, cADPR production induced by 150 nM Ang II, 90 s, MMCs, read-out: IC50([CADPR]i, uM) (means ± SEM)
Protocol: [cADPR]i was measured using a cyclic enzymatic assay as described previously [Graeff et al., Biochem. J. (2002)361:379-84]. Aplysia californica ADPR-cyclase was purified from […] according to the method described [Lee et al., Cell Regul. (1991)2:203-9]. Briefly, MMCs were treated with 0.3 ml of 0.6 M perchloric acid under sonication after Ang II treatment. Precipitates were removed by centrifugation at 20,000×g for 10 min. Perchloric acid was removed by mixing the aqueous sample with a solution containing 3 volumes of 1,1,2-trichlorotrifluoroethane to 1 volume of tri-n-octlyamine. After centrifugation for 10 min at 1500×g, the aqueous layer was collected and neutralized with 20 mM sodium phosphate (pH 8). To remove all contaminating nucleotides, the samples were incubated with the following hydrolytic enzymes overnight at 37° C.: 0.44 unit/ml nucleotide pyrophosphatase, 12.5 units/ml alkaline phosphatase, 0.0625 unit/ml NADase, and 2.5 mM MgCl2 in 20 mM sodium phosphate buffer (pH 8.0). Enzymes were removed by filtration using Centricon-3 filters. To convert cADPR to NAD^+, the samples (0.1 ml/tube) were incubated with […] of a cycling reagent containing 0.3 mg/ml Aplysia ADPR-cyclase, 30 mM nicotinamide, and 100 mM sodium phosphate (pH 8) at room temperature for 30 min. The samples were further incubated with the cycling reagent (0.1 ml) containing 2% ethanol, […] alcohol dehydrogenase, 20 mM resazurin, 10 mg/ml diaphorase, 10 mM riboflavin 5′-phosphate, 10 mM nicotinamide, 0.1 mg/ml BSA, and 100 mM sodium phosphate (pH 8.0) for 2 h at room temperature. An increase in the resorufin fluorescence was measured at 544 nm excitation and 590 nm emission using a fluorescence plate reader (Molecular Devices Corp., Spectra-Max GEMINI). Various known concentrations of cADPR were also included in the cycling reaction to generate a standard curve. […] Production of cADPR as well as later sustained Ca^2+ signal in response to Ang II was inhibited with different efficacy by these small molecules (Table 1). […] The order of IC50 was 4,4′-DAHB>resveratrol>azobenzene=piceatannol>2,2′-DAHB.

[3] = test system: OKT3 induced [Ca^2+]i increase in Jurkat T cells; assay: OKT3-mediated [Ca2+]i increase in Jurkat T cells; settings: pretreatment, even at 10 mM; OKT3 5 mg/ml
Protocol: Changes in [Ca^2+]i in Jurkat T cells were determined as described above examples 1.

[4] = test system: OKT3 induced cADPR production in Jurkat T cells; assay: OKT3-induced [cADPR]i in Jurkat T cells; settings: pretreatment
Protocol: [cADPR]i was measured using a cyclic enzymatic assay as described previously [Graeff et al., Biochem. J. (2002)361:379-84]. Aplysia californica ADPR-cyclase was purified from […] according to the method described [Lee et al., Cell Regul. (1991)2:203-9]. Briefly, MMCs were treated with 0.3 ml of 0.6 M perchloric acid under sonication after Ang II treatment. Precipitates were removed by centrifugation at 20,000×g for 10 min. […] After centrifugation for 10 min at 1500×g, the aqueous layer was collected and neutralized with 20 mM sodium phosphate (pH 8). To remove all contaminating nucleotides, the samples were incubated with the following hydrolytic enzymes overnight at 37° C.: 0.44 unit/ml nucleotide pyrophosphatase, 12.5 units/ml alkaline phosphatase, 0.0625 unit/ml NADase, and 2.5 mM MgCl2 in 20 mM sodium phosphate buffer (pH 8.0). Enzymes were removed by filtration using Centricon-3 filters. […] An increase in the resorufin fluorescence was measured at 544 nm excitation and 590 nm emission using a fluorescence plate reader (Molecular Devices Corp., Spectra-Max GEMINI). […] Measurement of [cADPR]i in Jurkat T cells were determined as described above examples 5.

[5] = later sustained Ca2+ signal induced by 150 nM Ang II, 300 s, read-out: IC50([Ca^2+]i, uM) (means ± SEM)

Row | IC50 [1, 5] [µM] | IC50 [2] [µM] | IC50 ([1]; Ang II, pretreatment, read-out: IC50 for block of the sustained Ca2+ signal) [µM] | SMILES | effect on OKT3-mediated Ca2+ rise [3] | effect on OKT3-mediated [cADPR]i [4] | concentration at which cADPR production stimulated by Ang II is inhibited ([2]; MMC) [nM]
1 | 15 ± 1.5 | 16.5 ± 2.5 | – | Oc1ccccc1/N=N/c1ccccc1O [2,2′-DHAB, 2,2′-Dihydroxyazobenzene] | did not show any effects | didn't inhibited | –
2 | 0.0025 ± 0.0002 | 0.0025 ± 0.0003 | ~0.0025 | Oc1ccc(N=Nc2ccc(O)cc2)cc1 [4,4′-DHAB, 4,4′-Dihydroxyazobenzene] | did not show any effects | didn't inhibited | 5
